Experimental data published in patent publication US8414938B2, “Schisandrae fructus extracts for inhibition or prevention of H1N1 influenza virus infection and its application thereof” (National Defense Medical Center, priority 2011, dated 2013).
Values after ≈ are worked out from the molar mass of the structure shown.

Test system: H1N1-TR (Tamiflu resistant virus strain)
Assay: microbe, parasite or virus in culture
Assay type: cell-based
Settings: unidentified influenza virus, H1N1, read-out: MIC, H1N1-TR

Row | Compound | MIC [µg/mL]
1 | COc1cc2c(c(OC)c1OC)-c1c(cc3c(c1OC)OCO3)C[C@H](C)[C@@](C)(O)[C@H]2OC(=O)c1ccccc1 (atropisomer, axis not shown) [Benzoylgomisin P] | 12.5 (≈ 23.3 µM)
2 | C/C=C(\C)C(=O)O[C@H]1c2cc(OC)c(OC)c(OC)c2-c2c(cc3c(c2OC)OCO3)C[C@H](C)[C@@]1(C)O (atropisomer, axis not shown) [Tigloylgomisin P] | 75 (≈ 146 µM)
3 | COc1cc([C@@H]2c3cc(OC)c(O)cc3C(=O)[C@H](C)[C@H]2C)ccc1O [Epiwulignan A1] | 12.5 (≈ 36.5 µM)
4 | NC(=O)c1ncn([C@@H]2O[C@H](CO)[C@@H](O)[C@H]2O)n1 [Ribavirin, ribavirin, reference compound] | 3.12 (≈ 12.8 µM)
5 | COc1cc2c(cc1O)C(=O)[C@@H](C)[C@@H](C)[C@@H]2c1ccc(OC)c(OC)c1 [Schisandrone] | 6.25 (≈ 17.5 µM)
6 | COc1cc([C@@H]2c3cc(OC)c(O)cc3C(=O)[C@@H](C)[C@H]2C)ccc1O [Wulignan A1] | 12.5 (≈ 36.5 µM)
